Numbers after ± are expanded uncertainties.
Assay: mn = molality of the nth substance listed, in mol/kg
Conditions: 101 kPa, Liquid; for viscosity: Capillary tube (Ostwald / Ubbelohde) method; for mass density: Vibrating tube method

Compound: CO/N=C(\C(=O)N[C@@H]1C(=O)N2C(C(=O)[O-])=C(CSc3nc(C)c(CC(=O)[O-])s3)CS[C@H]12)c1csc(N)n1.[Na+].[Na+] + O
- viscosity (278.15 K, m1 = 0.01): 1.551 ± 0.015 mPa·s
- viscosity (278.15 K, m1 = 0.03): 1.609 ± 0.015 mPa·s
- viscosity (278.15 K, m1 = 0.05): 1.667 ± 0.016 mPa·s
- viscosity (278.15 K, m1 = 0.07): 1.724 ± 0.016 mPa·s
- viscosity (278.15 K, m1 = 0.09): 1.783 ± 0.017 mPa·s
- viscosity (278.15 K, m1 = 0.11): 1.839 ± 0.017 mPa·s
- viscosity (278.15 K, m1 = 0.13): 1.9 ± 0.018 mPa·s
- viscosity (278.15 K, m1 = 0.15): 1.962 ± 0.018 mPa·s
- mass density (278.15 K, m1 = 0.01): 1002.35 ± 0.23 kg/m3
- mass density (278.15 K, m1 = 0.03): 1006.68 ± 0.21 kg/m3
- mass density (278.15 K, m1 = 0.05): 1010.63 ± 0.2 kg/m3
- mass density (278.15 K, m1 = 0.07): 1014.39 ± 0.19 kg/m3
- mass density (278.15 K, m1 = 0.09): 1018.03 ± 0.19 kg/m3
- mass density (278.15 K, m1 = 0.11): 1021.6 ± 0.19 kg/m3
- mass density (278.15 K, m1 = 0.13): 1025.13 ± 0.18 kg/m3
- mass density (278.15 K, m1 = 0.15): 1028.54 ± 0.18 kg/m3
- viscosity (283.15 K, m1 = 0.01): 1.33 ± 0.013 mPa·s
- viscosity (283.15 K, m1 = 0.03): 1.381 ± 0.013 mPa·s
- viscosity (283.15 K, m1 = 0.05): 1.431 ± 0.014 mPa·s
- viscosity (283.15 K, m1 = 0.07): 1.479 ± 0.014 mPa·s
- viscosity (283.15 K, m1 = 0.09): 1.529 ± 0.015 mPa·s
- viscosity (283.15 K, m1 = 0.11): 1.577 ± 0.015 mPa·s
- viscosity (283.15 K, m1 = 0.13): 1.63 ± 0.016 mPa·s
- viscosity (283.15 K, m1 = 0.15): 1.682 ± 0.016 mPa·s
- mass density (283.15 K, m1 = 0.01): 1002.07 ± 0.23 kg/m3
- mass density (283.15 K, m1 = 0.03): 1006.36 ± 0.21 kg/m3
- mass density (283.15 K, m1 = 0.05): 1010.27 ± 0.2 kg/m3
- mass density (283.15 K, m1 = 0.07): 1014 ± 0.19 kg/m3
- mass density (283.15 K, m1 = 0.09): 1017.61 ± 0.19 kg/m3
- mass density (283.15 K, m1 = 0.11): 1021.14 ± 0.18 kg/m3
- mass density (283.15 K, m1 = 0.13): 1024.59 ± 0.18 kg/m3
- mass density (283.15 K, m1 = 0.15): 1027.97 ± 0.18 kg/m3
- viscosity (288.15 K, m1 = 0.01): 1.153 ± 0.011 mPa·s
- viscosity (288.15 K, m1 = 0.03): 1.197 ± 0.011 mPa·s
- viscosity (288.15 K, m1 = 0.05): 1.24 ± 0.012 mPa·s
- viscosity (288.15 K, m1 = 0.07): 1.282 ± 0.012 mPa·s
- viscosity (288.15 K, m1 = 0.09): 1.326 ± 0.013 mPa·s
- viscosity (288.15 K, m1 = 0.11): 1.367 ± 0.013 mPa·s
- viscosity (288.15 K, m1 = 0.13): 1.413 ± 0.013 mPa·s
- viscosity (288.15 K, m1 = 0.15): 1.458 ± 0.014 mPa·s
- mass density (288.15 K, m1 = 0.01): 1001.45 ± 0.22 kg/m3
- mass density (288.15 K, m1 = 0.03): 1005.68 ± 0.21 kg/m3
- mass density (288.15 K, m1 = 0.05): 1009.58 ± 0.2 kg/m3
- mass density (288.15 K, m1 = 0.07): 1013.27 ± 0.19 kg/m3
- mass density (288.15 K, m1 = 0.09): 1016.85 ± 0.18 kg/m3
- mass density (288.15 K, m1 = 0.11): 1020.33 ± 0.18 kg/m3
- mass density (288.15 K, m1 = 0.13): 1023.74 ± 0.18 kg/m3
- mass density (288.15 K, m1 = 0.15): 1027.06 ± 0.17 kg/m3
- viscosity (293.15 K, m1 = 0.01): 1.016 ± 0.0095 mPa·s
- viscosity (293.15 K, m1 = 0.03): 1.055 ± 0.0099 mPa·s
- viscosity (293.15 K, m1 = 0.05): 1.094 ± 0.01 mPa·s
- viscosity (293.15 K, m1 = 0.07): 1.13 ± 0.01 mPa·s
- viscosity (293.15 K, m1 = 0.09): 1.169 ± 0.011 mPa·s
- viscosity (293.15 K, m1 = 0.11): 1.206 ± 0.011 mPa·s
- viscosity (293.15 K, m1 = 0.13): 1.246 ± 0.011 mPa·s
- viscosity (293.15 K, m1 = 0.15): 1.285 ± 0.012 mPa·s
- mass density (293.15 K, m1 = 0.01): 1000.53 ± 0.22 kg/m3
- mass density (293.15 K, m1 = 0.03): 1004.71 ± 0.21 kg/m3
- mass density (293.15 K, m1 = 0.05): 1008.6 ± 0.2 kg/m3
- mass density (293.15 K, m1 = 0.07): 1012.24 ± 0.19 kg/m3
- mass density (293.15 K, m1 = 0.09): 1015.8 ± 0.2 kg/m3
- mass density (293.15 K, m1 = 0.11): 1019.24 ± 0.18 kg/m3
- mass density (293.15 K, m1 = 0.13): 1022.59 ± 0.18 kg/m3
- mass density (293.15 K, m1 = 0.15): 1025.89 ± 0.17 kg/m3
- viscosity (298.15 K, m1 = 0.01): 0.9017 ± 0.0084 mPa·s
- viscosity (298.15 K, m1 = 0.03): 0.9359 ± 0.0087 mPa·s
- viscosity (298.15 K, m1 = 0.05): 0.9694 ± 0.009 mPa·s
- viscosity (298.15 K, m1 = 0.07): 1.002 ± 0.0093 mPa·s
- viscosity (298.15 K, m1 = 0.09): 1.036 ± 0.0096 mPa·s
- viscosity (298.15 K, m1 = 0.11): 1.069 ± 0.0098 mPa·s
- viscosity (298.15 K, m1 = 0.13): 1.104 ± 0.01 mPa·s
- viscosity (298.15 K, m1 = 0.15): 1.14 ± 0.01 mPa·s
- mass density (298.15 K, m1 = 0.01): 999.36 ± 0.22 kg/m3
- mass density (298.15 K, m1 = 0.03): 1003.52 ± 0.21 kg/m3
- mass density (298.15 K, m1 = 0.05): 1007.36 ± 0.19 kg/m3
- mass density (298.15 K, m1 = 0.07): 1010.99 ± 0.19 kg/m3
- mass density (298.15 K, m1 = 0.09): 1014.51 ± 0.18 kg/m3
- mass density (298.15 K, m1 = 0.11): 1017.91 ± 0.18 kg/m3
- mass density (298.15 K, m1 = 0.13): 1021.27 ± 0.18 kg/m3
- mass density (298.15 K, m1 = 0.15): 1024.52 ± 0.17 kg/m3
- viscosity (303.15 K, m1 = 0.01): 0.8062 ± 0.0075 mPa·s
- viscosity (303.15 K, m1 = 0.03): 0.8369 ± 0.0078 mPa·s
- viscosity (303.15 K, m1 = 0.05): 0.8669 ± 0.008 mPa·s
- viscosity (303.15 K, m1 = 0.07): 0.8964 ± 0.0083 mPa·s
- viscosity (303.15 K, m1 = 0.09): 0.9263 ± 0.0085 mPa·s
- viscosity (303.15 K, m1 = 0.11): 0.9559 ± 0.0088 mPa·s
- viscosity (303.15 K, m1 = 0.13): 0.9862 ± 0.009 mPa·s
- viscosity (303.15 K, m1 = 0.15): 1.019 ± 0.0093 mPa·s
- mass density (303.15 K, m1 = 0.01): 997.94 ± 0.22 kg/m3
- mass density (303.15 K, m1 = 0.03): 1002.05 ± 0.2 kg/m3
- mass density (303.15 K, m1 = 0.05): 1005.88 ± 0.19 kg/m3
- mass density (303.15 K, m1 = 0.07): 1009.48 ± 0.18 kg/m3
- mass density (303.15 K, m1 = 0.09): 1012.96 ± 0.18 kg/m3
- mass density (303.15 K, m1 = 0.11): 1016.34 ± 0.18 kg/m3
- mass density (303.15 K, m1 = 0.13): 1019.64 ± 0.17 kg/m3
- mass density (303.15 K, m1 = 0.15): 1022.89 ± 0.17 kg/m3
- viscosity (308.15 K, m1 = 0.01): 0.7252 ± 0.0068 mPa·s
- viscosity (308.15 K, m1 = 0.03): 0.7532 ± 0.007 mPa·s
- viscosity (308.15 K, m1 = 0.05): 0.7799 ± 0.0072 mPa·s
- viscosity (308.15 K, m1 = 0.07): 0.8066 ± 0.0074 mPa·s
- viscosity (308.15 K, m1 = 0.09): 0.8336 ± 0.0076 mPa·s
- viscosity (308.15 K, m1 = 0.11): 0.8594 ± 0.0079 mPa·s
- viscosity (308.15 K, m1 = 0.13): 0.8867 ± 0.0081 mPa·s
- viscosity (308.15 K, m1 = 0.15): 0.9172 ± 0.0083 mPa·s
- mass density (308.15 K, m1 = 0.01): 996.31 ± 0.22 kg/m3
- mass density (308.15 K, m1 = 0.03): 1000.43 ± 0.2 kg/m3
- mass density (308.15 K, m1 = 0.05): 1004.18 ± 0.19 kg/m3
- mass density (308.15 K, m1 = 0.07): 1007.75 ± 0.18 kg/m3
- mass density (308.15 K, m1 = 0.09): 1011.2 ± 0.18 kg/m3
- mass density (308.15 K, m1 = 0.11): 1014.55 ± 0.18 kg/m3
- mass density (308.15 K, m1 = 0.13): 1017.85 ± 0.17 kg/m3
- mass density (308.15 K, m1 = 0.15): 1021.04 ± 0.17 kg/m3
- viscosity (313.15 K, m1 = 0.01): 0.6576 ± 0.0062 mPa·s
- viscosity (313.15 K, m1 = 0.03): 0.682 ± 0.0064 mPa·s
- viscosity (313.15 K, m1 = 0.05): 0.707 ± 0.0066 mPa·s
- viscosity (313.15 K, m1 = 0.07): 0.7314 ± 0.0068 mPa·s
- viscosity (313.15 K, m1 = 0.09): 0.7559 ± 0.007 mPa·s
- viscosity (313.15 K, m1 = 0.11): 0.7783 ± 0.0072 mPa·s
- viscosity (313.15 K, m1 = 0.13): 0.8042 ± 0.0074 mPa·s
- viscosity (313.15 K, m1 = 0.15): 0.8303 ± 0.0077 mPa·s
- mass density (313.15 K, m1 = 0.01): 994.47 ± 0.22 kg/m3
- mass density (313.15 K, m1 = 0.03): 998.57 ± 0.2 kg/m3
- mass density (313.15 K, m1 = 0.05): 1002.27 ± 0.19 kg/m3
- mass density (313.15 K, m1 = 0.07): 1005.83 ± 0.18 kg/m3
- mass density (313.15 K, m1 = 0.09): 1009.24 ± 0.18 kg/m3
- mass density (313.15 K, m1 = 0.11): 1012.57 ± 0.17 kg/m3
- mass density (313.15 K, m1 = 0.13): 1015.83 ± 0.17 kg/m3
- mass density (313.15 K, m1 = 0.15): 1018.99 ± 0.17 kg/m3

Reference: the NIST ThermoML archive (doi:10.1016/j.tca.2013.06.031)
